Read-outs that look alike come from different tables or passages of the source.
What was measured:
[1] = biological target: T1, CYP1A2 (Homo sapiens, UniProt P05177); experiment: CYP450 enzyme activity inhibition assay (human liver microsomes); type: in vitro ADME
T1 construct: from tissue; host or cells: human liver microsomes
T1 sequence (P05177 1-516): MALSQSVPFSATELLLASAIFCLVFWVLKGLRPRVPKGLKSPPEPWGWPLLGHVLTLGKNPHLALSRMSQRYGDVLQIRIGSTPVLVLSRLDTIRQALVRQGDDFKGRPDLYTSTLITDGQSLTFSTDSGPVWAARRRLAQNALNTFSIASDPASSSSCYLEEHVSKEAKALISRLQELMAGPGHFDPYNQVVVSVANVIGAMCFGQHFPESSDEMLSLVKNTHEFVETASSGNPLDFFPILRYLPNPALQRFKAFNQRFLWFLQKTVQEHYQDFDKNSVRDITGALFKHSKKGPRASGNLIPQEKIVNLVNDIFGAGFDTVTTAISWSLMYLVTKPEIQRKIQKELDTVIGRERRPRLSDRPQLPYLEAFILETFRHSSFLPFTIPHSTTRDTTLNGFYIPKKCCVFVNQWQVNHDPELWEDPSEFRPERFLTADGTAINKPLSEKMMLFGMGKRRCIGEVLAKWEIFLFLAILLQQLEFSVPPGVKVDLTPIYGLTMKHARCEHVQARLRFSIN
Method: (§1) The purpose of this study was to evaluate the effects of the test compounds on the activities of five isoenzymes (CYP1A2, CYP2C9, CYP2C19, CYP2D6, and CYP3A4) of human liver microsomal cytochrome P450 (CYP) using an in vitro testing system. The specific probe substrates of CYP450 isoenzymes were incubated with human liver microsomes and test compounds of different concentrations, and reduced nicotinamide adenine dinucleotide phosphate (NADPH) was added to initiate the reaction. After the completion of the reaction, the sample was treated and liquid chromatography-tandem mass spectrometry (LC-MS/MS) was used to quantitatively detect metabolites produced by specific substrates. Changes in CYP enzyme activity were determined, and IC50 value was calculated to evaluate the inhibitory potential of the test compound on each CYP enzyme subtype.

[2] = biological target: T2, CYP2C19 (Homo sapiens, UniProt P33261); experiment: as above; type: in vitro ADME
T2 construct: from tissue; host or cells: human liver microsomes
Method: as §1

[3] = biological target: T3, CYP2C9 (Homo sapiens, UniProt P11712); experiment: as above; type: in vitro ADME
T3 construct: from tissue; host or cells: human liver microsomes
Method: as §1

[4] = biological target: T4, CYP2D6 (Homo sapiens, UniProt P10635); experiment: as above; type: in vitro ADME
T4 construct: from tissue; host or cells: human liver microsomes
Method: as §1

[5] = biological target: T5, CYP3A4 (Homo sapiens, UniProt P08684); experiment: as above; type: in vitro ADME
T5 construct: from tissue; host or cells: human liver microsomes
Method: as §1

[6] = biological target: T6, OATP1B1 (Homo sapiens, UniProt Q9Y6L6); experiment: SLC transporter inhibition assay (HEK293-OATP1B1 cells); type: in vitro ADME; conditions: test substance 0-30 µM, read-out: IC50 against OATP1B1
T6 construct: expressed in transfected cells; host or cells: HEK293
T6 sequence (Q9Y6L6 1-691): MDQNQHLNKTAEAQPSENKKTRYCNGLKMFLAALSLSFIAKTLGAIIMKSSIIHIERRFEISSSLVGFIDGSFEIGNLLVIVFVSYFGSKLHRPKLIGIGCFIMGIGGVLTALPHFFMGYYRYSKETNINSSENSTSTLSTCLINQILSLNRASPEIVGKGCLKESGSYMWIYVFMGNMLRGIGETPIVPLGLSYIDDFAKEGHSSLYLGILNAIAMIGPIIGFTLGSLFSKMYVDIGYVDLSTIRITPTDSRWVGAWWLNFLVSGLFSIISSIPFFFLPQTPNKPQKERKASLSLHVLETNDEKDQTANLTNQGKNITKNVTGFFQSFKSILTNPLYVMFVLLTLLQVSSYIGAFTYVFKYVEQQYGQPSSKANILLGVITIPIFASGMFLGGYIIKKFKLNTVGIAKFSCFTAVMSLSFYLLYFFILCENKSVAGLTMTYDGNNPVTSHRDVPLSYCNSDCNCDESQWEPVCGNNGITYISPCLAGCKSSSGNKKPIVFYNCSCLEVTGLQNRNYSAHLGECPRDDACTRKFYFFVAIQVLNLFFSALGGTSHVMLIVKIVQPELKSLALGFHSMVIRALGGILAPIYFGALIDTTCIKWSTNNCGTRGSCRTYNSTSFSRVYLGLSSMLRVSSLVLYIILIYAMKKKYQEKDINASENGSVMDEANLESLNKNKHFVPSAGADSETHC
Method: (§2) The objective of this study was to evaluate the inhibitory effects of the test substance on the activities of the transporters OATP1B1 and OATP1B3.
(§3) HEK293-OATP1B1 and OATP1B3 cells were incubated with and without the test substance (0-30 µM) for the corresponding time. Samples were then collected, and the substrate content in the samples was detected by liquid chromatography-tandem mass spectrometry (LC-MS/MS). By calculating the transport activity of the transporter with and without the test substance, the percentage of transporter activity of the transporter-expressing cells at different administration concentrations of the test substance (%VC (Vehicle Control, solvent control), the percentage of transport activity of the transporter with and without the test substance) was obtained, and the half-maximal inhibitory concentration (IC50) was calculated from this.

[7] = biological target: OATP1B3 (Homo sapiens, UniProt Q9NPD5); experiment: in vitro; conditions: oatp1b3 cells
Method: as §2, §3

[8] = biological target: T7, GLP-1R (Homo sapiens, UniProt P43220); experiment: In vitro activity assay (cAMP HTRF, HEK293-CRE-luc-GLP-1R cells); type: cell-based; design: expressed in transfected cells; host or cells: HEK293 (HEK293-CRE-luc-GLP-1R); conditions: cAMP HTRF 665 nm/620 nm, 1 h incubation
Method: HEK293-CRE-luc-GLP-1R cells were seeded into a 384-well cell culture plate (Greiner #781946) at a certain cell density (5 µL/well). 5 µl/well of 2× working solution was added to the 384-well microplate. The microplate was sealed with parafilm and incubated in a 37°C 5% CO2 incubator (Thermo) for 1 h. Subsequently, the detection was performed using the cAMP-GS HIRANGE KIT (PerkinElmer, 62AM6PEB), and detection reagents were prepared according to the kit instruction manual. After the incubation, the detection reagents were added to the 384-well microplate, and the microplate was incubated for 1 h at room temperature in the dark. HTRF signals at 665 nm and 620 nm were then measured using a multimode microplate reader. Data were exported from the microplate reader in Excel format. GraphPad Prism was opened. The logarithm of the sample concentration was calculated. Using the logarithm of concentration as the x-axis and the 665 nm/620 nm ratio as the y-axis, four-parameter logistic fitting was performed to obtain the EC50 value of the curve. Table 1: EC50 of compounds against GLP-1

[9] = Mouse pharmacokinetic assay; type: in vivo, male C57 mice; conditions: male, C57, mouse, plasma, mice
Method: Experimental animals: male C57 mice, 22-25 g, 6 mice/compound.
Experimental design: on the day of the experiment, C57 mice were randomly grouped according to body weight. The animals were fasted with water available for 12 h to 14 h one day before the administration, and were fed 4 h after the administration. Table 2. Administration information
Before and after the administration, 0.06 mL of blood was taken from the orbits under isoflurane anaesthesia and placed in an EDTAK2 centrifuge tube. The blood was centrifuged at 5000 rpm at 4°C for 10 min, and the plasma was collected. The blood collection time points for the intravenous administration group and intragastric administration group were 0, 5 min, 15 min, 30 min, 1 h, 2 h, 4 h, 7 h and 24 h. Before analysis and detection, all samples were stored at -80°C, and the samples were quantitatively analysed by LC-MS/MS. Table 2-1 Pharmacokinetic results of test compounds in mice

[10] = Monkey pharmacokinetic assay; type: in vivo, male cynomolgus monkeys; conditions: male, cynomolgus monkey, plasma, monkeys
Method: Experimental animals: male cynomolgus monkeys, 3-5 kg, 3-6 years old, 5 monkeys/compound, purchased from Hainan New Source Biotechnology Co., Ltd.
Experimental method: On the day of the experiment, five monkeys were randomly grouped according to body weight, with two in the intravenous administration group and three in the intragastric administration group. The animals were fasted with water available for 14 h to 18 h one day before the administration, and were fed 4 h after the administration. Table 3. Administration information

[11] = biological target: T7, GLP-1R; experiment: Oral glucose tolerance test (OGTT); type: in vivo, male C57BL/6-G1p1rem2 (hGLP1R) Smoc mice; design: from tissue; host or cells: whole animal: male C57BL/6-Glp1r em2(hGLP1R) Smoc knock-in mice; conditions: 3 mg/kg, orally administered; from blood glucose AUC0-2 h after glucose load
Method: OGTT experiment was performed in male C57BL/6-G1p1rem2 (hGLP1R) Smoc mice to evaluate the hypoglycaemic effect of GLP-1 receptor agonists. The animals were fasted for more than 16 hours and randomly grouped. Tail tip blood was collected and basal fasting blood glucose (FBG) was measured using a blood glucose meter. Mice with FBG in the range of 3.5-6.5 mmol/L were selected and orally administered, and the control group was administered the vehicle. 15 min after administration, each group of animals was intragastrically administered with 25% glucose solution. Blood glucose levels were measured in tail tip blood collected 15 min, 30 min, 45 min, 1 h, and 2 h after glucose administration. 0-2 h blood glucose AUC0-2 h was calculated using the Graphpad Prism software, and the inhibition rate was further calculated. [formula]

T2 sequence (P33261 whole entry): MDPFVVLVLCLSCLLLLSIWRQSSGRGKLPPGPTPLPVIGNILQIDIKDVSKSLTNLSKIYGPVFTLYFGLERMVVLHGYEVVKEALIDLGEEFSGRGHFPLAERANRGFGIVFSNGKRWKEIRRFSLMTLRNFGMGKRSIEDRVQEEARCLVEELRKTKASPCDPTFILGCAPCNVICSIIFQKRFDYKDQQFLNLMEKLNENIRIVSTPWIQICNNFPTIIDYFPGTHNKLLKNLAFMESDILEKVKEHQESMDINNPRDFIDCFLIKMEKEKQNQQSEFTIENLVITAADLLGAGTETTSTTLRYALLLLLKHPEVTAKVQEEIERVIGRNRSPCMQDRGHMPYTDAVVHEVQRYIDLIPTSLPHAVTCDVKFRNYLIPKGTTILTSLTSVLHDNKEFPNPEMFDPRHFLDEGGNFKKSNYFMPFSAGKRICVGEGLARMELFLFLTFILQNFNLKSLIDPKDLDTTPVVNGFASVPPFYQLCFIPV
T4 sequence (P10635 whole entry): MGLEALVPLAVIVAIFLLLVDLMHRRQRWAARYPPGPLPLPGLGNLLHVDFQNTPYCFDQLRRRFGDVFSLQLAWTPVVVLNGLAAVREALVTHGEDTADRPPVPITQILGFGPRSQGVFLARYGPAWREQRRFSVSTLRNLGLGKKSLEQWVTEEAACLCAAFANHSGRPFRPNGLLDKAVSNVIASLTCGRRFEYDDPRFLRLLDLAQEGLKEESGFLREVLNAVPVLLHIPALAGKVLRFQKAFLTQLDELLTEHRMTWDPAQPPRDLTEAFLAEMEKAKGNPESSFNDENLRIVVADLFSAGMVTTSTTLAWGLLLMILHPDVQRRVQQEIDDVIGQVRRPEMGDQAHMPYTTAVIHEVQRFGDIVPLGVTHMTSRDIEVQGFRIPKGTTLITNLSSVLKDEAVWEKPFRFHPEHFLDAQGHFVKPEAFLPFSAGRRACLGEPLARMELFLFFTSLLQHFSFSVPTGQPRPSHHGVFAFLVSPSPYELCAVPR
T7 sequence (P43220 24-463): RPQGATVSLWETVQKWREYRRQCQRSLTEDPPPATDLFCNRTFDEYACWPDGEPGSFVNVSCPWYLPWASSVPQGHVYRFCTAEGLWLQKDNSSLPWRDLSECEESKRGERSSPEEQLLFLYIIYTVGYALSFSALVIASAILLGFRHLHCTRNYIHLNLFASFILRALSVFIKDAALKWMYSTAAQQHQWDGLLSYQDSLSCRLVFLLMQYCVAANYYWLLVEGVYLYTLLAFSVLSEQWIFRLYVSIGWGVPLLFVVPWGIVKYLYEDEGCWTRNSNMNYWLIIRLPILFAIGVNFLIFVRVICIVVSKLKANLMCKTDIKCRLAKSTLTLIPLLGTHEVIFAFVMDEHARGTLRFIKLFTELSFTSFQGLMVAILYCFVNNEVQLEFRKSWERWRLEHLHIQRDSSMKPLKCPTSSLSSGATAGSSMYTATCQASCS
T3 sequence (P11712 whole entry): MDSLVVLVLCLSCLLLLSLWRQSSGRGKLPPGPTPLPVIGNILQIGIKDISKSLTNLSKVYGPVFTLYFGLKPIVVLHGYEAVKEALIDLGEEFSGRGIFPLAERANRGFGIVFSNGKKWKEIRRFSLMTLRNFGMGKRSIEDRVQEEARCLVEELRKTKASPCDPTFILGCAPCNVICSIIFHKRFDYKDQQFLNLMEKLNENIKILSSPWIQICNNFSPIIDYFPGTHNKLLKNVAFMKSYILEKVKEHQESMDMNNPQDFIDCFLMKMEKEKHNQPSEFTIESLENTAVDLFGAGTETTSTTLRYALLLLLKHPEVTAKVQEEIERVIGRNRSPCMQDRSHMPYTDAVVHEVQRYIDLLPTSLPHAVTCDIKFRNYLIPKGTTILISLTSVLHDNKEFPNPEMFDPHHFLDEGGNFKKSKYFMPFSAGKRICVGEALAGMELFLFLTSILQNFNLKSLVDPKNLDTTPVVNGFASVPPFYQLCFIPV
T5 sequence (P08684 whole entry): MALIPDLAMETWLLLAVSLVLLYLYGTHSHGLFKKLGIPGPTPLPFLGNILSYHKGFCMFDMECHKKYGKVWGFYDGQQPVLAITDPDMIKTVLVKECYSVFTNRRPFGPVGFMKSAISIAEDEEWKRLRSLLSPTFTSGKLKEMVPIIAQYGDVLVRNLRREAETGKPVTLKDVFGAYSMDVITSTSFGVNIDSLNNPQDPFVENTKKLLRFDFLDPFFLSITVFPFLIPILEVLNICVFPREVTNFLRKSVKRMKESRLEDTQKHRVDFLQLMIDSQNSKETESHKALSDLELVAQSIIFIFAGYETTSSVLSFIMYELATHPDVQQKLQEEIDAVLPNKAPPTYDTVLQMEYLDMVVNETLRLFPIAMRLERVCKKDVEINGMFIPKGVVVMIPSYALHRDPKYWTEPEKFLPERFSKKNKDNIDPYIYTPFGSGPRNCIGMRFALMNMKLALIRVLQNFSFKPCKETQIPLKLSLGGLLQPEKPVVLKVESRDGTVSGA
OATP1B3, sequence (Q9NPD5 whole entry, species assumed): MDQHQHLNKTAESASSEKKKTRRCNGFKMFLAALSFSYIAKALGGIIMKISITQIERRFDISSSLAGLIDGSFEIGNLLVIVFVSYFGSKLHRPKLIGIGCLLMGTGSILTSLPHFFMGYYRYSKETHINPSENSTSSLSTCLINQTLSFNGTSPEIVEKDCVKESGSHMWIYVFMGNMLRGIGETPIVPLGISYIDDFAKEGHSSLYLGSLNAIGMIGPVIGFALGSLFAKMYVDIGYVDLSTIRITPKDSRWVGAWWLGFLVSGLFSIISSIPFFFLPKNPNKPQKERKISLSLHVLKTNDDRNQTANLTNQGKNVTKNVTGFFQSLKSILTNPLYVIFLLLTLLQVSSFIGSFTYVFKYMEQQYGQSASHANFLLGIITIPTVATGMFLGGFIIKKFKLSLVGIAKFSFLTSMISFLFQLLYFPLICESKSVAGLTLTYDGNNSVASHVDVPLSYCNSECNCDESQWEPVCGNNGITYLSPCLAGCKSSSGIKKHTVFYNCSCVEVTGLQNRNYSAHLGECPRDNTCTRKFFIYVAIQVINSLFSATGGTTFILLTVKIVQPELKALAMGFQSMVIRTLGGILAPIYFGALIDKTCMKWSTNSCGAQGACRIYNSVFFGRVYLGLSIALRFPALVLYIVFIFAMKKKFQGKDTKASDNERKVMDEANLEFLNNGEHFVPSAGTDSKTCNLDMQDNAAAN

| bioavailability ([9]; oral, intragastric administration 10 mg/kg (intravenous 2.5 mg/kg)) [%] | AUC(0-t) ([9]; po, intragastric administration 10 mg/kg) [ng·h/mL] | bioavailability ([10]; oral, intragastric administration 5 mg/kg (intravenous 1 mg/kg)) [%] | AUC(0-t) ([10]; po, intragastric administration 5 mg/kg) [ng·h/mL] | IC50 ([1]; human liver microsomes, NADPH, read-out: IC50 (µM) CYP1A2) [µM] | IC50 ([2]; human liver microsomes, NADPH, read-out: IC50 (µM) CYP2C19) [µM] | IC50 ([3]; human liver microsomes, NADPH, read-out: IC50 (µM) CYP2C9) [µM] | IC50 ([4]; human liver microsomes, NADPH, read-out: IC50 (µM) CYP2D6) [µM] | IC50 ([5]; human liver microsomes, NADPH, read-out: IC50 (µM) CYP3A4) [µM] | SMILES | IC50 ([1]; human, microsomes) [µM] | IC50 ([2]; human, microsomes) [µM] | IC50 ([3]; human, microsomes) [µM] | IC50 ([4]; human, microsomes) [µM] | IC50 ([5]; human, microsomes) [µM] | IC50 [6] [µM] | IC50 [7] [µM] | EC50 [8] [µM] | blood glucose inhibition rate [11] [%] |
| --- | --- | --- | --- | --- | --- | --- | --- | --- | --- | --- | --- | --- | --- | --- | --- | --- | --- | --- |
| – | – | – | – | – | – | – | – | – | C[C@H]1c2c(nn(-c3ccc(F)c(C4(F)CC4)c3)c2-n2ccn(-c3ccc4c(c3)N(C)C(=O)C43CCOCC3)c2=O)CCN1C(=O)c1cc2cc([C@H]3CCOC(C)(C)C3)ccc2n1[C@@]1(c2noc(=O)[nH]2)C[C@@H]1C [Compound 6] | > 30 | > 30 | > 30 | > 30 | > 30 | > 2 | > 1 | < 0.001 | – |
| 7.93 | 3260 | 1.93 | 584 | > 30 | > 30 | 0.905 | > 30 | > 30 | Cc1cc(-n2nc3c(c2-n2ccn(-c4ccc5c(cnn5C)c4F)c2=O)[C@H](C)N(C(=O)c2cc4cc([C@H]5CCOC(C)(C)C5)ccc4n2[C@@]2(c4noc(=O)[nH]4)C[C@@H]2C)CC3)cc(C)c1F [Orforglipron, reference compound] | – | – | – | – | – | – | – | – | -9.8 |
